Measured values from article PMC6476888, “Design and synthesis of anticancer 1-hydroxynaphthalene-2-carboxanilides with a p53 independent mechanism of action” (Scientific Reports, 2019).
Where “and” joins values, the source holds several entries; their conditions need not be identical. Equal values may be shown once. Entries after “also recorded” stand apart in the source; their conditions may differ.

What was measured:
CT-DNA = assay: Spectrophotometric DNA intercalation assay; type: binding, calf; details: for Changes in absorbance: bound to CT-DNA (18 µM), 1.5 h 37 °C, Tris-HCl pH 7.9; for % hypochromism / Δε: bound to CT-DNA, for CP-31398 first value (312 nm band); for red shift: wavelengths of maximum absorption, individual vs DNA-bound compound
Source text: The fused aromatic rings of the naphthalene moiety and halogen substituents in aniline may guarantee good intercalating properties[71],[72]. On the other hand, the intercalation of DNA may explain the high activity against both the wild-type and p53 mutants as was reported for a series of styrylquinolines. Binding to DNA causes the bases to mismatch or cleave, which results in the arrest of the cell cycle and apoptosis. The effectiveness of the p53 system is one of the most important factors in the response to therapy. We tested the intercalating properties of the selected compounds in a spectrophotometric assay on calf-thymus DNA. The absorption spectra of the tested compounds in the absence and presence of CT-DNA are presented in Figure S1 Supplementary Information and the spectral properties with doxorubicine and CP-31398 are summarized in Table 2.
For the DNA binding studies, Calf-thymus DNA (CT-DNA) was purchased from Sigma- Aldrich. The lyophilized CT-DNA was dissolved in 10 mM Tris-HCl, pH 7.9, mixed gently and left overnight at 4 °C. The purity of the CT-DNA solution was determined by measuring the ratio of UV absorbance at 260 and 280 nm. […] Then, the concentration of CT-DNA was determined from the absorbance at 260 nm using an extinction coefficient of 6600 M^−1cm^−1. The tested compounds including DOX and CP-31398 were dissolved to a concentration of 8.35 mM in DMSO, which was then used as the stock solution for preparing the various concentrations (25, 12.5, 6 and 3 µM) in 1 mL in 10 mM of Tris-HCl (pH 7.9). Afterwards, 18 µM CT-DNA was added to the prepared solutions, which were incubated for 1.5 h at 37 °C with occasional vortexing. The absorption spectra were measured using a Hitachi U-2900 spectrophotometer in the range of 200–500 nm. All absorption spectra were imported into OriginPro 8.0 and compared.

[1] = tested on: caspase-8, caspase-9, AIF, cytochrome c, PARP in HCT116 cells; assay: Western blot of proapoptotic proteins; type: cell-based, human; details: p53 null cells
Experimental: These are shown in Figure S5 supplementary information. […] This observation corresponds with the high selectivity of 5s towards the p53^−/− cell line. Moreover, no activation of caspase-8 or AIF was detected after incubation with the tested anilides. Similarly, the cytochrome c level was unaffected. Leakage of cytochrome c from the mitochondria is the first step of caspase-dependent apoptosis, which is often initiated by p53 activation. […] On the other hand, cleavage of PARP as well as a small but evident increase in the PARP level in response to the active compounds was observed. PolyADP-ribose polymerase is the nuclear factor that is responsible for detecting and repairing single strand breaks in DNA[79]. Its inhibition by the cleavage that is induced with caspase-3 is also a classic sign of apoptosis. However, the complex role of this protein is still vague especially in terms of any alternative activation and deactivation factors[80],[81]. Special attention is being paid to alternative ways of cell death for their potential usefulness in designing selectively targeted drugs[82]–[84].
The HCT116 cells were seeded in 3-cm Petri dishes (Nunc) at a density of 0.5·10^6 cells/well and incubated overnight. […] The protein concentration was determined using a Micro BCA™ Protein Assay Kit (Thermo-Fisher Scientific, Waltham, MA, USA c) according to the manufacturer’s instructions. […]

SMILES	Changes in absorbance (CT-DNA)	% hypochromism (CT-DNA)	Δε (CT-DNA)	red shift (CT-DNA)	cleavage of caspases-8 and −9 [1]
O=C(Nc1cc(C(F)(F)F)cc(C(F)(F)F)c1)c1ccc2ccccc2c1O [7f]	rather low hypochromic effect; also recorded: hypochromism	5.7%	244.4 M⁻¹ cm⁻¹	no wavelength shift and 0 nm	–
O=C(Nc1cc(C(F)(F)F)cc(C(F)(F)F)c1Cl)c1ccc2ccccc2c1O [5u]	hypochromism	14%	922.2 M⁻¹ cm⁻¹	small red-shift and 2 nm	–
O=C(Nc1ccc(F)c(Cl)c1)c1ccc2ccccc2c1O [5s]	hypochromism	6.5%	255.6 M⁻¹ cm⁻¹	2 nm	some cleavage
